Consider four compounds from US20140343165A1, “PLANT PROTECTION AGENT” (priority 2010, published 2014).

For data set [1], the system named is Erwinia amylovora. Put plainly: In vitro infection tests on apple blossoms. The following applies: for Infested blossoms: 14 blossoms. The protocol:
In these tests, streptomycin was used as a positive control.
The in vitro tests on apple blossoms represented the natural course of infection and were conducted as follows: blooming apple blossoms were cut and further cultivated standing in a sterile sugar solution in transparent plastic containers. […] Following another 35 hours of incubation, the blossoms were wet by spraying on water. The infection rate was determined after 8 to 10 days of incubation at 22° C. and 70% relative humidity.

Data set [2] concerns Erwinia amylovora. Put plainly: Bacteriostatic versus bactericidal effect: plating aliquots of suspension cultures onto agent-free solid medium. In kind it is cell-based. The following applies: for Colony formation of surviving cells after plating: already after 30 min. As for the experimental part: This may be determined by means of plating aliquots of the suspension cultures containing the agent onto agent-free solid media. […] A culture blended with a corresponding volume of the solvent for juglone (ethanol) served as a control. […]. […] Aliquots of the suspension culture having an equivalent ethanol concentration were withdrawn and plated to serve as a control. After two days of incubating the plates at 25° C., the respective colony formation was documented.

Data set [3] relates to Erwinia amylovora. Put plainly: Inoculation tests on pear fruits. It counts as in vivo. From the text:
As opposed to the blossom system, this test has to be performed with lesions of the plant tissue. It is known that any results obtained with this system have a lower reproducibility and are harder to evaluate. The corresponding results are photographically documented in FIG. 3. Two different pear varieties were used.
The development of black necrotic lesions of the plant tissue and the formation of white bacterial slime (exsudate) were taken as criteria for evaluating the degree of infection.
Erwinia amylovora was inoculated into 5 ml KB medium and cultivated over night at 28° C. and 200 rpm. Upon reaching a cell density corresponding to OD600 (1:10 dilution)=0.17 to 0.20, 1 ml of the undiluted culture was centrifuged and the bacterial pellet was resuspended in PBS (phosphate buffered saline). Unripe pear fruits (July) obtained from the experimental plantation (Jedlersdorf, BOKU) were harvested, washed with water, dried and used for inoculation (EPPO protocol 2004). In the inoculation procedure, two holes each having a volume of about 10 μl were pierced into each fruit using a pipette tip. 10 μl of the test solution were pipetted into each of the hollows thus formed, followed by incubation of the fruits for 15 min. Upon absorption of the test solutions by the tissue, each lesion was inoculated with 10 μl of Erwinia amylovora, suspended in PBS. The direct inoculation of fruits that had not been treated with the agent before served as a positive control. In the negative control, sterile water was used instead of the agent solution. A 0.01 mM streptomycin solution was used as a positive control. The inoculated fruits were incubated for 3 to 7 days at 25° C. and 100% relative humidity.

The subject of data set [4] is Erwinia amylovora. Put plainly: Growth inhibition in in vitro suspension cultures (OD600 growth curves). To be noted: for Effect on growth of suspension culture: Example 2. It counts as cell-based. As for the experimental part:
Streptomycin as a conventional agent against Erwinia amylovora was used as a positive control (see FIGS. 1A to 1D).
The specific members of the three different classes of quinones were uniformly pre-dissolved in ethanol to give a 1 mM solution and subsequently diluted to the respective final concentrations in culture medium. Corresponding controls were conducted with equal volumes of ethanol in the absence of agent (FIG. 4, “KE”). Attention was particularly focused on a low concentration rage of less than 100 μM, in which unspecific and weak antibacterial effects are no longer of significance.
In the present experiments, the Austrian Erwinia amylovora standard strain 295/93 (AGES) was employed.
(§1) Erwinia amylovora was inoculated into 5 ml of KB medium and cultivated over night at 28° C. and 200 rpm. This culture was diluted with KB medium to OD600=0.3 and 2 ml thereof were further cultivated in sealed cuvettes in the presence of different agent concentrations immediately afterwards. […] Two controls were conducted: unchanged medium and medium with an ethanol concentration equal to that of the test preparations. The optical densities of the cultures OD600 were measured over time at predetermined intervals.

Data set [5] relates to pear blossoms (Williams Christ). Put plainly: Phytotoxicity on pear blossoms and subsequent fruit development. To be noted: for Browning reaction on petals: Williams Christ; for Fruit russeting: all tested concentrations. It counts as in vivo, Pyrus communis. The protocol: (§2) . In this test, the respective concentrations were employed that had been proven as completely effective (no bacterial growth) in the in vitro suspension cultures. […]. […] The maximum final concentrations of the solvent ethanol in the treatment solutions were 5%; corresponding control treatments were conducted with 0.5 or 5% ethanol in water. For each variant (agent, concentration, variety), two of the larger branches were treated. The test were conducted in the experimental fruit plantation of the University of Agriculture in Jedlersdorf, Austria. The trees of each series were of identical age as well as developmental and observable physiological state. The treatments were conducted in the morning between 8:00 and 9:30 at a relative humidity of 68 to 75% and temperatures of 12 to 13° C. On all days of treatment, the sprayed blossoms were directly exposed to sunlight afterwards. Phytotoxic effects were evaluated on the days following treatment. During the following months, fruit set and development was observed and compared to that of the control plants. In the evaluation, attention was particularly focused on visible alterations of the fruit epidermis.

Data set [6] relates to apple blossoms (Smoothy and Idared). Put plainly: Phytotoxicity on apple blossoms and subsequent fruit development. To be noted: for Browning reaction on petals: Smoothy and Idared; for Fruit russeting: all tested concentrations. It counts as in vivo, Malus x domestica. The protocol:
as §2

Data set [7] relates to Erwinia carotovora. Put plainly: Growth inhibition in suspension culture. In kind it is cell-based. As for the experimental part:
Various other species of Erwinia are also important phytopathogens. The bacterium Erwinia carotovora was selected as an example of a further Erwinia species.
as §1

Data set [8] relates to bees. The following applies: on contact or by ingestion.
Setting [9] is: concentration not given, curative.

Consider `O=C1C=CC(=O)C=C1` [Benzoquinone, 1,4-benzoquinone], for which the phyotoxic entry in data set [1] (0.01 mM, apple blossoms) is “no”. In data set [1] (0.01 mM, curative), the “Degree of efficacy (%)” value stood at 33%, the “Infestation (%)” value amounted to 57% and the Infested blossoms came out at 8. Also, the phyotoxic entry in data set [1] (0.05 mM, apple blossoms) was “yes”. In addition, in data set [1] (0.05 mM, curative), the “Degree of efficacy (%)” value is 42%, the “Infestation (%)” value is given as 50% and the Infested blossoms is 7.

Turning to `O=C1C=CC(=O)c2c(O)cccc21` [Juglone], the “Colony formation of surviving cells after plating” value in data set [2] (0.01 mM in suspension culture) and in data set [2] (0.1 mM in suspension culture) was “no colony formation of surviving cells after each prolonged incubation time” each time. The Bactericidal effect result in data set [2] (conclusion of plating tests) is “strong bactericidal effect”. The “Effect on infection of pear fruits” value in data set [3] (0.1 mM, pre-incubation 15 min before inoculation) is given as “effect approximately comparable to that of 0.01 mM streptomycin”. The “Effect on growth of suspension culture” value is on record as “growth occurs after a prolonged incubation period” in data set [4] (5 μM); “completely bactericidal effect” in data set [4] (10 μM (1.74 mg/1)); “distinct effect” in data set [4] (50 μM, 5% ethanol in medium). For the same compound, the “Concentrations proven completely effective (no bacterial growth) in the in vitro suspension cultures” value in data set [4] (suspension culture) is 0.005 to 0.05 mM. Besides, the “Activity against Erwinia amylovora (growth inhibition)” value in data set [4] (suspension culture, compared with streptomycin) is reported as “activity corresponding to that of streptomycin in a sub-millimolar concentration range”. The “Degree of efficacy (%)” value in data set [1] (0.005 mM, curative) is reported as 58%; in data set [1] (0.01 mM, curative), 67%. Also, the “Infestation (%)” value in data set [1] (0.005 mM, curative) is listed as 36%; in data set [1] (0.01 mM, curative) it was 29%. Moreover, the Infested blossoms worked out at 5 in data set [1] (0.005 mM, curative) and 4 in data set [1] (0.01 mM, curative). Besides, the “Browning reaction on petals” value in data set [5] (tested 0.005/0.01 mM) is listed as “No effect”; in data set [6] (0.025 mM), “slightly brown spots”; in data set [6] (0.05 mM) it was “more distinct spots”. Further, the Fruit russeting entry in data set [5] and in data set [6] was “Neither the juglone nor the plumbagin treatments resulted in observable fruit russeting” throughout. In addition, the “Growth in suspension culture” value in data set [7] (0.1 mM) is “completely inhibited”; in data set [7] (concentrations lower than 0.1 mM) it was “not by lower concentrations”. Moreover, in data set [8], the Toxicity to bees entry is “non-toxic to bees on contact or by ingestion”.

Regarding `CC1=CC(=O)c2c(O)cccc2C1=O` [Plumbagin, 5-hydroxy-2-methyl-1,4-naphthoquinone], the “Concentrations proven completely effective (no bacterial growth) in the in vitro suspension cultures” value in data set [4] (suspension culture) lay within 0.1 to 0.5 mM. The “Degree of efficacy (%)” value worked out at 58% in data set [1] (0.1 mM, curative) and 50% in data set [1] (0.5 mM, curative). Besides, the “Infestation (%)” value is given as 36% in data set [1] (0.1 mM, curative) and 43% in data set [1] (0.5 mM, curative). Also, the Infested blossoms in data set [1] (0.1 mM, curative) is reported as 5; in data set [1] (0.5 mM, curative), 6. The “Browning reaction on petals” value is on record as “brown spots” in data set [5] (0.1 mM); “more distinct” in data set [5] (0.5 mM, compared with 0.1 mM); “brown spots” in data set [6] (0.1 mM); “more distinct” in data set [6] (0.5 mM, compared with 0.1 mM). For the same compound, the Fruit russeting result in data set [5] and in data set [6] was “Neither the juglone nor the plumbagin treatments resulted in observable fruit russeting” in each case.

Regarding `[H]/N=C(/N)N[C@H]1[C@H](O)[C@@H](O)[C@H](O[C@@H]2O[C@@H](C)[C@](O)(C=O)[C@H]2O[C@@H]2O[C@@H](CO)[C@H](O)[C@@H](O)[C@@H]2NC)[C@@H](N/C(N)=N\[H])[C@@H]1O` [Streptomycin, streptomycin], in data set [3] (0.01 mM), the Exsudate formation result is given as “no exsudate formation”. In data set [3] (0.01 mM, Williams Christ and Bosc's Bottle Pear, versus inoculation without agent), the Necrotic lesions result was “slightly diminished”. The same compound gave an Infested blossoms in data set [1] (concentration not given, agent applied 2.5 h after Erwinia amylovora (curative)) of 3. For the same compound, in data set [1] (setting [9]), the “Degree of efficacy (%)” value stood at 75% and the “Infestation (%)” value is on record as 21%. Also, the phyotoxic result in data set [1] (in vivo) is “no”.
